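Method: 48-hour compound exposure of cells in 96-well plates, five concentrations, linear interpolation of endpoints. GI50 is the concentration that inhibits growth by half.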 Calls of active or inactive are those of the source. Cut-off read from the data, not from the text of the source: active = GI50 up to about 1.1 µM and inactive = higher.
What was measured:
Assay in all cases: growth of human tumour cells (NCI), 48 h
SK-OV-3 = test system: SK-OV-3
Malme-3M = test system: Malme-3M
M14 = test system: M14
SF-539 = test system: SF-539
HCT-15 = test system: HCT-15
OVCAR-5 = test system: OVCAR-5
MDA-MB-435 = test system: MDA-MB-435
UACC-62 = test system: UACC-62
NCI-H226 = test system: NCI-H226
NCI-H460 = test system: NCI-H460
SNB-75 = test system: SNB-75
IGROV-1 = test system: IGROV-1
RXF 393 = test system: RXF 393
OVCAR-8 = test system: OVCAR-8
SNB-19 = test system: SNB-19
SK-MEL-2 = test system: SK-MEL-2
UO-31 = test system: UO-31
HOP-62 = test system: HOP-62
OVCAR-4 = test system: OVCAR-4
UACC-257 = test system: UACC-257
K562 = test system: K562
LOX IMVI = test system: LOX IMVI
MDA-MB-231 = test system: MDA-MB-231
T47D = test system: T47D
CCRF-CEM = test system: CCRF-CEM
TK-10 = test system: TK-10
KM12 = test system: KM12
MDA-N = test system: MDA-N
Hs-578T = test system: Hs-578T
DU-145 = test system: DU-145
COLO 205 = test system: COLO 205
NCI/ADR-RES = test system: NCI/ADR-RES
786-0 = test system: 786-0
U-251 = test system: U-251
EKVX = test system: EKVX
OVCAR-3 = test system: OVCAR-3
A498 = test system: A498
PC-3 = test system: PC-3
CAKI-1 = test system: CAKI-1
NCI-H522 = test system: NCI-H522
SN12C = test system: SN12C
MCF7 = test system: MCF7
NCI-H23 = test system: NCI-H23
SR = test system: SR
HT-29 = test system: HT-29
HOP-92 = test system: HOP-92
ACHN = test system: ACHN
SK-MEL-5 = test system: SK-MEL-5
MOLT-4 = test system: MOLT-4
SF-295 = test system: SF-295
A549 = test system: A549
SK-MEL-28 = test system: SK-MEL-28
HCT-116 = test system: HCT-116
HCC 2998 = test system: HCC 2998
SW-620 = test system: SW-620
SF-268 = test system: SF-268
RPMI-8226 = test system: RPMI-8226
HL-60 = test system: HL-60

Measured: GI50

CC(C)(C)N1NC1C1NN1C(C)(C)C (stereo unspecified)
inactive: SK-OV-3 > 100 µM | Malme-3M > 100 µM | M14 > 100 µM | SF-539 > 100 µM | OVCAR-5 > 100 µM | MDA-MB-435 > 100 µM | UACC-62 > 100 µM | NCI-H226 > 100 µM | NCI-H460 > 100 µM | SNB-75 > 100 µM | IGROV-1 > 100 µM | RXF 393 > 100 µM | OVCAR-8 > 100 µM | SNB-19 > 100 µM | SK-MEL-2 > 100 µM | UO-31 > 100 µM | HOP-62 > 100 µM | OVCAR-4 > 100 µM | UACC-257 > 100 µM | K562 > 100 µM | LOX IMVI > 100 µM | MDA-MB-231 > 100 µM | T47D > 100 µM | CCRF-CEM > 100 µM | TK-10 > 100 µM | KM12 > 100 µM | MDA-N > 100 µM | Hs-578T > 100 µM | DU-145 > 100 µM | COLO 205 > 100 µM | NCI/ADR-RES > 100 µM | 786-0 > 100 µM | U-251 > 100 µM | EKVX > 100 µM | OVCAR-3 > 100 µM | A498 > 100 µM | PC-3 > 100 µM | CAKI-1 > 100 µM | NCI-H522 > 100 µM | SN12C > 100 µM | MCF7 > 100 µM | NCI-H23 > 100 µM | SR > 100 µM | HT-29 > 100 µM | HOP-92 > 100 µM | ACHN > 100 µM | SK-MEL-5 > 100 µM | MOLT-4 > 100 µM | SF-295 > 100 µM | A549 > 100 µM | SK-MEL-28 > 100 µM | HCT-116 > 100 µM | HCC 2998 > 100 µM | SW-620 > 100 µM | SF-268 > 100 µM | RPMI-8226 > 100 µM
> 100 µM: HCT-15

CCCCCCCCCCCCCCCCCCOP1(=O)OCCO1
inactive: SK-OV-3 > 100 µM | Malme-3M > 100 µM | M14 > 100 µM | SF-539 > 100 µM | OVCAR-5 74 µM | MDA-MB-435 > 100 µM | UACC-62 > 100 µM | NCI-H226 > 100 µM | SNB-75 > 100 µM | IGROV-1 > 100 µM | RXF 393 16.4 µM | OVCAR-8 > 100 µM | SNB-19 44.8 µM | SK-MEL-2 > 100 µM | UO-31 > 100 µM | HOP-62 79.1 µM | OVCAR-4 > 100 µM | UACC-257 > 100 µM | K562 > 100 µM | LOX IMVI 52.1 µM | MDA-MB-231 44.5 µM | T47D > 100 µM | CCRF-CEM 54 µM | TK-10 30.4 µM | KM12 > 100 µM | MDA-N > 100 µM | DU-145 > 100 µM | COLO 205 > 100 µM | NCI/ADR-RES > 100 µM | 786-0 > 100 µM | U-251 27.9 µM | EKVX > 100 µM | OVCAR-3 > 100 µM | A498 > 100 µM | PC-3 22.8 µM | CAKI-1 > 100 µM | NCI-H522 54.6 µM | HL-60 23.8 µM | SN12C > 100 µM | MCF7 > 100 µM | NCI-H23 > 100 µM | HT-29 > 100 µM | HOP-92 > 100 µM | ACHN > 100 µM | SK-MEL-5 > 100 µM | MOLT-4 40.7 µM | SF-295 28.5 µM | A549 79.4 µM | SK-MEL-28 > 100 µM | HCT-116 49.5 µM | HCC 2998 47.2 µM | SW-620 > 100 µM | RPMI-8226 37.4 µM
39.9 µM: HCT-15
